Assay results from patent publication US10363257B2 (ZENITH EPIGENETICS LTD., priority 2013, dated 2019).

Experiments:
c-myc = experiment: Inhibition of c-myc expression (mRNA, real-time PCR) in MV4-11 cells; type: cell-based; settings: Human AML MV4-11 cells, 3 h, cMYC mRNA
Method in brief: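 One-step TaqMan qPCR of cMYC, normalized to an internal control with Cyclophilin probes run, gave fold expression versus DMSO (0.1%) control. Samples: triplicate MV4-11 wells exposed 3 h at 37° C to rising compound concentrations in IMDM with 10% FBS.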

hIL-17 mRNA = experiment: Inhibition of hIL-17 mRNA transcription in OKT3-stimulated peripheral blood mononuclear cells; type: cell-based; settings: PBMC, human peripheral blood mononuclear cells, OKT3 antibody, 6 h, read-out: IL-17 activity
Experimental: In this example, hIL-17 mRNA in human peripheral blood mononuclear cells was quantitated to measure the transcriptional inhibition of hIL-17 when treated with a compound of the invention.
Human peripheral blood mononuclear cells were plated (2.0×10^5 cells per well) in a 96-well plate in 45 μL OpTimizer T Cell expansion media containing 20 ng/ml IL-2 and penicillin/streptomycin. The cells were treated with the test compound (45 μL at 2× concentration), and then the cells were incubated at 37° C. for 1 h before addition of 10× stock OKT3 antibody at 10 μg/ml in media. Cells were incubated at 37° C. for 6 h before the cells were harvested. At time of harvest, cells were centrifuged (800 rpm, 5 min). Spent media was removed and cell lysis solution (70 μL) was added to the cells in each well and incubated for 5-10 min at room temperature, to allow for complete cell lysis and detachment. mRNA was then prepared using the “mRNA Catcher PLUS plate” (Invitrogen), according to the protocol supplied. After the last wash, as much wash buffer as possible was aspirated without allowing the wells to dry. Elution buffer (E3, 70 μL) was then added to each well. mRNA was then eluted by incubating the mRNA Catcher PLUS plate with Elution Buffer for 5 min at 68° C. and then immediately placing the plate on ice.
The eluted mRNA isolated was then used in a one-step quantitative RT-PCR reaction, using components of the Ultra Sense Kit together with Applied Biosystems primer-probe mixes. Real-time PCR data was analyzed, normalizing the Ct values for hIL-17 to an internal control, prior to determining the fold induction of each unknown sample, relative to the control.

human AML MV-4-11 cells = experiment: Inhibition of cell proliferation in MV4-11 cells (CellTiter Aqueous One); type: cell-based; settings: MV4-11, 72 h
Method in brief: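 IC50 values come from blank-corrected proliferation relative to DMSO controls, read as 490 nm absorbance 3–4 h after CellTiter Aqueous One addition. Before that, cells seeded at 5×10^4/well were exposed for 72 h (37° C, 5% CO2) to triplicate two-fold compound dilutions spanning 30–0.2 μM.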

MV4-11 cells = experiment: In vivo efficacy in athymic nude mouse acute myeloid leukemia xenograft model using MV4-11 cells; settings: MV4-11 AML xenograft, oral, 75 mg/kg b.i.d and 120 mg/kg b.i.d
Experimental: MV4-11 cells (ATCC) are grown under standard cell culture conditions and (NCr) nu/nu fisol strain of female mice age 6-7 weeks are injected with 5×10^6 cells/animal in 100 μL PBS+100 μL Matrigel in the lower left abdominal flank. By approximately day 18 after MV4-11 cells injection, mice are randomized based on tumor volume (L×W×H)/2) of average ˜120 mm^3. Mice are dosed orally with compound at 75 mg/kg b.i.d and 120 mg/kg b.i.d in EA006 formulation at 10 mL/kg body weight dose volume. Tumor measurements are taken with electronic micro calipers and body weights measured on alternate days beginning from dosing period. The average tumor volumes, percent Tumor Growth Inhibition (TGI) and % change in body weights are compared relative to Vehicle control animals. The means, statistical analysis and the comparison between groups are calculated using Student's t-test in Excel.

[1] = target: T1, Brd4 bromodomain 1 (BRD4(1)) (Homo sapiens, UniProt O60885); experiment: Inhibition of tetra-acetylated histone H4 binding to Brd4 bromodomain 1 (TR-FRET); settings: tetra-acetylated histone H4 peptide, first bromodomain of Brd4
T1 construct: made in house; host or cells: E. coli BL21(DE3)
Method in brief: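 Serially diluted compound (0.2% DMSO) incubated 2 h at room temperature with 200 nM N-His BRD4 bromodomain 1 and 25-50 nM biotinylated tetra-acetyl H4 peptide, detected via Eu-streptavidin/XL665 anti-His. Loss of 665 nm relative to 620 nm signal gave IC50 from dose-response.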

In the case of `Cc1noc(C)c1-c1cc(N)c2ncn(Cc3ccccc3)c2c1` [Example Compound 7, 1-Benzyl-6-(3,5-dimethylisoxazol-4-yl)-1H-benzo[d]imidazol-4-amine], the IC50 (c-myc) is reported as 300 to 3000 nM, the IC50 (hIL-17 mRNA) is reported as at most 300 nM and the IC50 (human AML MV-4-11 cells) is reported as at most 300 nM. For the same molecule, the In vivo activity (MV4-11 cells) was “Active” and the IC50 [1] was at most 300 nM.
